Test results: patent publication US9073880B2, “2-(2-phenylethenyl) 1,3-benzodiazepine derivatives useful for the treatment of cancer” (Yissum Research Development Company of the Hebrew …, priority 2010, dated 2015)

Legend:
Type in all cases: cell-based
[1] = tested on: Human ovary cancer A2780 cells; experiment: Cell proliferation, A2780 (Example 4); conditions: compound in 2-hydroxypropyl-β-cyclodextrin
Protocol: (§1) Human ovary cancer A2780 cells lines were seeded at a density of 5000 cells/well, human melanoma A375 cells were plated at a density of 2,500 cells/well, human colon carcinoma HCT15 cells were plated at a density of 3,000 cells/well, human prostate carcinoma PC3 cells were plated at a density of 1,500 cells/well, human breast carcinoma MCF7 cells were plated at a density of 5,000 cells/well, human breast carcinoma MDA MB 468 cells were plated at a density of 6,000 cells/well, human myeloma U266, RPMI8226 and CAG cells were plated at a density of 10,000 cells/well. All cells were plated in 96-well plates in 90 μl growth medium containing 10% FCS, 100 units/ml penicillin and 100 μg/ml streptomycin. Compound 3 was added a day later in […] of 1% DMSO in DDW to obtain final concentrations of 0, 0.1, 0.3, 1, 3, and 10 μM. The final concentration of DMSO (0.1% DMSO) was kept constant in all samples. Following exposure of the cells to compound 3 for 72 hours at 37° C., adhered cells were fixed in 0.5% gluteraldehyde in medium for 10 min, washed three times with DDW, once with 0.1M sodium borate buffer pH 8.5 and stained with 1% methylene blue dissolved in 0.1M borate buffer solution for 60 min. Excess dye was washed out and cell-bound dye was eluted with 200 μl/well of 0.1M HCl. The optical density values were read at 630 nm in ELISA plate reader. Non-adhered cells were exposed to WST-1 reagent for 5 hours following 72 hours treatment with the inhibitors, and optical density values were read at 630 nm in ELISA plate reader. The data was analyzed in Microsoft Excel, using the vehicle control as 100% proliferation. The assays were performed in triplicates. The values of IC50 were derived from the dose-dependent growth curves obtained.
(§2) Cell proliferation assay was performed as described in Example 2. […]

[2] = tested on: human colon carcinoma HCT116 cells; experiment: Cell proliferation, HCT116 (Example 4); conditions: HCT-116, HCT116, colon cancer, compound in 2-hydroxypropyl-β-cyclodextrin
Protocol: as §1
(§3) Cell proliferation assay was performed as described in Example 2. The following cell line were plated in 96-well plates in 90 μl growth medium containing 10% FCS, 100 units/ml penicillin and 100 μg/ml streptomycin: human ovary cancer A2780 cells (4500 cells/well), human melanoma A375 (1500 cells/well) and YUMAC (2500 cells/well) cells, human colon carcinoma HCT15 (3000 cells/well) and HCT116 (2000 cells/well) cells, human prostate carcinoma PC3 (3000 cells/well), PC3MM2 (3500 cells/well) and DU145 (300 cells/well) cells, human hepatocarcinoma HepG2 (3000 cells/well), human Ewing sarcoma SK-ES-1 (4,500 cells/well), human glioblastoma U138MG (2,000 cells/well), human breast cancer T47D (4000 cells/well) and MDA-MB-468 (6000 cells/well) cells, human small cell lung carcinoma NCI-H1975 (5000 cells/well) cells, human osteosarcoma Saos-2 (5000 cells/well) cells, human pancreatic cancer ASPC (2500 cells/well) cells, human bladder carcinoma T24P (1000 cells/well) cells, human gastric cancer NCI-N87 (5000 cells/well) cells, human lymphoma KARPAS (5,000 cells/well) cells, human leukemia K562 (5,000 cells/well) cells and human multiple myeloma MM1S (10,000 cells/well), U266 (10,000 cells/well) and CAG (5,000 cells/well). Compounds 2-5 and 7-8 were added a day later in 10 μl of 0.7% 2-hydroxypropyl-β-cyclodextrin to obtain final concentrations of 0, 0.1, 0.3, 1, 3 and 10 μM.
(§4) Compounds 2-5 and 7-8 of the present invention were tested for their inhibitory potential in cell proliferation assay. […]

[3] = tested on: human hepatocarcinoma HepG2 cells; experiment: Cell proliferation, HepG2 (Example 4); conditions: compound in 2-hydroxypropyl-β-cyclodextrin
Protocol: as §1, §2

[4] = tested on: human Ewing sarcoma SK-ES-1 cells; experiment: Cell proliferation, SK-ES-1 (Example 4); conditions: SK-ES1, SK-ES-1, Ewing sarcoma, compound in 2-hydroxypropyl-β-cyclodextrin
Protocol: as §1, §2

[5] = tested on: human breast cancer T47D cells; experiment: Cell proliferation, T47D (Example 4); conditions: compound in 2-hydroxypropyl-β-cyclodextrin
Protocol: as §1, §2

[6] = tested on: human breast cancer MDA-MB-468 cells; experiment: Cell proliferation, MDA-MB-468 (Example 4); conditions: MDA-MB-468, breast cancer, compound in 2-hydroxypropyl-β-cyclodextrin
Protocol: as §1, §2

[7] = tested on: human osteosarcoma Saos-2 cells; experiment: Cell proliferation, Saos-2 (Example 4); conditions: Saos-2, osteosarcoma, compound in 2-hydroxypropyl-β-cyclodextrin
Protocol: as §1, §2

[8] = tested on: human pancreatic cancer ASPC cells; experiment: Cell proliferation, ASPC (Example 4); conditions: compound in 2-hydroxypropyl-β-cyclodextrin
Protocol: as §1, §3, §4

[9] = tested on: human bladder carcinoma T24P cells; experiment: Cell proliferation, T24P (Example 4); conditions: compound in 2-hydroxypropyl-β-cyclodextrin
Protocol: as §1, §2

[10] = tested on: human leukemia K562 cells; experiment: Cell proliferation, K562 (Example 4); conditions: compound in 2-hydroxypropyl-β-cyclodextrin
Protocol: as §1, §3, §4

Compound | IC50 [1] [nM] | IC50 [2] [nM] | IC50 [3] [nM] | IC50 [4] [nM] | IC50 [5] [nM] | IC50 [6] [nM] | IC50 [7] [nM] | IC50 [8] [nM] | IC50 [9] [nM] | IC50 [10] [nM]
O=c1c(O)cc2cnc(/C=C/c3ccc(O)c(O)c3Br)sc-2c1O [Compound 5] | 400 | 400 | 1600 | 600 | 1800 | 2900 | 2800 | 8200 | 6500 | 500
O=c1c(O)cc2cnc(/C=C/c3cc(O)c(O)c(Br)c3)sc-2c1O [Compound 3] | 400 | 500 | 900 | 300 | 1500 | 4700 | 3100 | 13100 | 6000 | 500
